According to patent publication US20050239806A1, “Pyrrolopyrimidine derivatives and analogs and their use in the treatment and prevention of diseases” (Ambit Biosciences Corporation, priority 2004, published 2005):

Legend:
[1] = target: T1, EGFR (tyrosine 1173 phosphorylation) in Lung Cancer Cell Line A459 (Homo sapiens, UniProt P00533); experiment: EGFR Autophosphorylation Inhibition Assay in Lung Cancer Cell Line A459; format: cell-based; conditions: EGF-induced phosphorylation of tyrosine 1173
T1 construct: endogenous in cells
Method: (§1) Tyrosine 1173 is a major autophosphorylation site resulting from activation of EGFR by epidermal growth factor (EGF). To determine the capacity of a compound to inhibit this phosphorylation activity of EGFR upon itself, the following methodology was used: 4×10^4 A431 cells/well in a 96-well culture plate or 3.6×10^5 A549 cells/well in a 24-well culture plate were cultured overnight at 37° C. in 5% CO2 in low serum culture medium (DMEM supplemented with 0.5% fetal calf serum, 4.500 mg/L glucose and 100 units/ml penicillin-streptomycin). After 16 hours, the cells were pre-incubated in eight serial 3-fold dilutions of test compound (3.3 μM-0.0017 μM) in addition to vehicle control (final concentration on DMSO vehicle was 1%) for two hours. Cells were stimulated by the addition of 5 ng/ml of EGF for five minutes. Cells were then washed with cold phosphate buffered saline (PBS), and incubated for 30 minutes at 4° C. in lysis buffer. Subsequently, the samples were centrifuged at 6000× RCF for 15 minutes, and the level of phosphorylation of EGFR tyrosine 1173 was measured using a sandwich enzyme-linked immunosorbent assay following the manufacturer's recommended protocols (Biosource, Camarillo, Calif.). Total EGFR levels were also measured in the same manner to control for protein level differences. The reported values are those concentrations of compound required to inhibit EGF-induced phosphorylation of tyrosine 1173 by 50%.

[2] = target: T2, EGFR (tyrosine 1173 phosphorylation) in A431 cells (Homo sapiens, UniProt P00533); experiment: EGFR Autophosphorylation Inhibition Assay in Epidermoid Carcinoma Cell Line A431; format: cell-based; conditions: EGF-induced phosphorylation of tyrosine 1173
T2 construct: endogenous in cells; host or cells: A431
Method: as §1

[3] = target: T3, human EGFR (wildtype), EGFR(DKIN) (Homo sapiens, UniProt P00533); experiment: Binding of wildtype-EGFR (T7 phage-displayed kinase competition binding)
T3 construct: Kd for EGFR(DKIN); made in house
Text: (§2) Methods for measuring binding affinities for interactions between small molecules and kinases including FLT3, c-KIT, ABL([…]) [a.k.a. ABL([…])], VEGFR-2 (a.k.a. KDR), and EGFR are described in detail in U.S. application Ser. No. 10/873,835, which is incorporated by reference herein in its entirety. The components of the assays include human kinases expressed as fusions to T7 bacteriophage particles and immobilized ligands that bind to the ATP site of the kinases. […] If the test compound binds the kinase it competes with the immobilized ligand and prevents binding to the solid support. […] The results are read out by quantitating the amount of fusion protein bound to the solid support, which is accomplished by either traditional phage plaque assays or by quantitative PCR (qPCR) using the phage genome as a template. […] The concentration of test molecule that reduces the number of phage bound to the solid support by 50% is equal to the Kd for the interaction between the kinase and the test molecule. Typically, data are collected for twelve concentrations of test compound and, the resultant binding curve is fit to a non-cooperative binding isotherm to calculate Kd. Described in the exemplary assays below is data from binding with varying kinases. […] The term “ND” represents non-determined values. […] The Kd for the interaction between the soluble compound (competitor) molecule and EGFR is equal to the concentration of soluble competitor molecule that causes a 50% reduction in the number of phage recovered in the eluate compared to a control sample lacking soluble competitor.

[4] = target: T4, EGFR (G719C) (Homo sapiens, UniProt P00533, G719C); experiment: Binding of mutant-EGFR (phage-displayed kinase competition binding)
T4 construct: made in house
Text: as §2

[5] = target: T5, EGFR (L747-T751del, Sins) (Homo sapiens, UniProt P00533, DEL747-750/T751S); experiment: as above
T5 construct: made in house
Text: as §2

[6] = target: T6, EGFR (L858R) (Homo sapiens, UniProt P00533, L858R); experiment: as above
T6 construct: made in house
Text: as §2

[7] = target: T7, EGFR (L747-E749del, A750P) (Homo sapiens, UniProt P00533, A750P/DEL747-749); experiment: as above
T7 construct: made in house
Text: as §2

[8] = target: T8, EGFR (G719S) (Homo sapiens, UniProt P00533, G719S); experiment: as above
T8 construct: made in house
Text: as §2

[9] = target: T9, EGFR (L747-T752del, P753S) (Homo sapiens, UniProt P00533, DEL747-752/P753S); experiment: as above
T9 construct: made in house
Text: as §2

[10] = target: T10, EGFR (E746-A750del) (Homo sapiens, UniProt P00533, DEL746-750); experiment: as above
T10 construct: made in house
Text: as §2

[11] = target: T11, EGFR (L861Q) (Homo sapiens, UniProt P00533, L861Q); experiment: as above
T11 construct: made in house
Text: as §2

[12] = target: T12, EGFR (S752-1759del) (Homo sapiens, UniProt P00533, DEL752-759); experiment: as above
T12 construct: made in house
Text: as §2

T11 sequence (P00533 25-1210 L861Q): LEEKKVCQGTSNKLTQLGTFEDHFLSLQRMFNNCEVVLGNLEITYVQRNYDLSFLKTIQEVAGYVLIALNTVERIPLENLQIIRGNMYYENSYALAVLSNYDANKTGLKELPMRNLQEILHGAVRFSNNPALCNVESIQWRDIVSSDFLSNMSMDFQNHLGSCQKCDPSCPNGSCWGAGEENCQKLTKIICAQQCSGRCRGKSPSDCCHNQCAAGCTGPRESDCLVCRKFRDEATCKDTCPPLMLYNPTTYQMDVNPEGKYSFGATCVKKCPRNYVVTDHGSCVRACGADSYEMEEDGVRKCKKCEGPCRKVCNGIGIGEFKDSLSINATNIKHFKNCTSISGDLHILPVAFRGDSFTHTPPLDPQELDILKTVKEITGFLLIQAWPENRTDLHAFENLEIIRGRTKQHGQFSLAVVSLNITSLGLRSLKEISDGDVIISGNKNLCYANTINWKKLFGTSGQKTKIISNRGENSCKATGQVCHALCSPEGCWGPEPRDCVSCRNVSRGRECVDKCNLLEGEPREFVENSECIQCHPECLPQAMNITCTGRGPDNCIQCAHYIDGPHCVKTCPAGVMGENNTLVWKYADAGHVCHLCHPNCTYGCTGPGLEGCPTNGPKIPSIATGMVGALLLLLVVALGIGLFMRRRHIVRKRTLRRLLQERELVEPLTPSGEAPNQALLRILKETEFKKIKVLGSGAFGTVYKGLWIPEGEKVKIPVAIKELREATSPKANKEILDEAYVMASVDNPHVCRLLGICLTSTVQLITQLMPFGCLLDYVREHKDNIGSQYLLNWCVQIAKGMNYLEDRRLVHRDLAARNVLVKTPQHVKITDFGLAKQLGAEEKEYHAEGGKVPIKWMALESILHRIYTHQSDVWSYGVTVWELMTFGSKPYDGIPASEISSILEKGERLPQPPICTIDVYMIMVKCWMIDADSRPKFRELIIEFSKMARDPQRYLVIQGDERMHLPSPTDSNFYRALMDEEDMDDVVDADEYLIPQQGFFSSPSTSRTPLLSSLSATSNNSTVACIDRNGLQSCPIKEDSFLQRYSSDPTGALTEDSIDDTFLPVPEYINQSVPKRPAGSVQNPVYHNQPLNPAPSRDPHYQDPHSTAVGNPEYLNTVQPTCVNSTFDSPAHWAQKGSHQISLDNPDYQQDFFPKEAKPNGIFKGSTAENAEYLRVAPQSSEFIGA
T9 sequence (P00533 with tags, fused parts or gaps DEL747-752/P753S limits assumed): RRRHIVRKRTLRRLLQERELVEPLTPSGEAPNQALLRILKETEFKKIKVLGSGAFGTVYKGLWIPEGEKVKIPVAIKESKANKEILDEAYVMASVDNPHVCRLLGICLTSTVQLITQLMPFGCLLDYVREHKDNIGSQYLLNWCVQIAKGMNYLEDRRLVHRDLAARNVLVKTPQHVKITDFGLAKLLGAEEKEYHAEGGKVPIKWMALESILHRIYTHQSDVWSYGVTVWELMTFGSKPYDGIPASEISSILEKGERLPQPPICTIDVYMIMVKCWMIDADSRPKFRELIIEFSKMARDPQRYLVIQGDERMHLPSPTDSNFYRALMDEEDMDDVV
T4 sequence (P00533 25-1210 G719C): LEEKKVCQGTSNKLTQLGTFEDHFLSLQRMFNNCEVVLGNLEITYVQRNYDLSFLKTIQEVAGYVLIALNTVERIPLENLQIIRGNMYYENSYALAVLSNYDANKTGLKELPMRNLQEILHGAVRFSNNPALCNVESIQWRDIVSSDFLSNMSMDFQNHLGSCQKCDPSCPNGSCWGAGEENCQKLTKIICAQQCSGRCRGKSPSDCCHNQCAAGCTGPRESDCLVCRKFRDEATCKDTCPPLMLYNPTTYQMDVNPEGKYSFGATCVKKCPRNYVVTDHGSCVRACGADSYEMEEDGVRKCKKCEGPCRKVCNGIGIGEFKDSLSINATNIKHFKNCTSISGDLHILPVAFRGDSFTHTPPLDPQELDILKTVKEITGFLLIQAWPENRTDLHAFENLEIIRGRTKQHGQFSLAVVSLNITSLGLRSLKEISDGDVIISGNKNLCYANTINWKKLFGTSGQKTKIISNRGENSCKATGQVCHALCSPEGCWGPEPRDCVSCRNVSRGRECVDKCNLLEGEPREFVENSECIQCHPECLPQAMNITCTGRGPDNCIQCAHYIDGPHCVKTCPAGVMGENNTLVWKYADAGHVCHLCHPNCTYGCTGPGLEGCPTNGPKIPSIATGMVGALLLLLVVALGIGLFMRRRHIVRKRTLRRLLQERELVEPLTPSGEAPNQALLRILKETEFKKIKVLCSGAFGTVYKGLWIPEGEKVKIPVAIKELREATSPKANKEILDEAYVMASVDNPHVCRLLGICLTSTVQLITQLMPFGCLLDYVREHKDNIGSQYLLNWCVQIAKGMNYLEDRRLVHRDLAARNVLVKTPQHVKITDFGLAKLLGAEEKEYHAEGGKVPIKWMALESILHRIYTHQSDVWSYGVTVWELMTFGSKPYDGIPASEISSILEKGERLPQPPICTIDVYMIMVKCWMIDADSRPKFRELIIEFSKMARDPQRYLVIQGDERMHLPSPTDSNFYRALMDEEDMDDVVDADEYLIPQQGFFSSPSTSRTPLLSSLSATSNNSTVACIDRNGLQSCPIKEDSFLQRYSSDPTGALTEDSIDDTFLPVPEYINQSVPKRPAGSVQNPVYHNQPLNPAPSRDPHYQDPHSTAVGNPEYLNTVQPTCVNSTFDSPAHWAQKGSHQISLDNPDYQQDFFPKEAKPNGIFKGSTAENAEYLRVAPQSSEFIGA
T6 sequence (P00533 25-1210 L858R): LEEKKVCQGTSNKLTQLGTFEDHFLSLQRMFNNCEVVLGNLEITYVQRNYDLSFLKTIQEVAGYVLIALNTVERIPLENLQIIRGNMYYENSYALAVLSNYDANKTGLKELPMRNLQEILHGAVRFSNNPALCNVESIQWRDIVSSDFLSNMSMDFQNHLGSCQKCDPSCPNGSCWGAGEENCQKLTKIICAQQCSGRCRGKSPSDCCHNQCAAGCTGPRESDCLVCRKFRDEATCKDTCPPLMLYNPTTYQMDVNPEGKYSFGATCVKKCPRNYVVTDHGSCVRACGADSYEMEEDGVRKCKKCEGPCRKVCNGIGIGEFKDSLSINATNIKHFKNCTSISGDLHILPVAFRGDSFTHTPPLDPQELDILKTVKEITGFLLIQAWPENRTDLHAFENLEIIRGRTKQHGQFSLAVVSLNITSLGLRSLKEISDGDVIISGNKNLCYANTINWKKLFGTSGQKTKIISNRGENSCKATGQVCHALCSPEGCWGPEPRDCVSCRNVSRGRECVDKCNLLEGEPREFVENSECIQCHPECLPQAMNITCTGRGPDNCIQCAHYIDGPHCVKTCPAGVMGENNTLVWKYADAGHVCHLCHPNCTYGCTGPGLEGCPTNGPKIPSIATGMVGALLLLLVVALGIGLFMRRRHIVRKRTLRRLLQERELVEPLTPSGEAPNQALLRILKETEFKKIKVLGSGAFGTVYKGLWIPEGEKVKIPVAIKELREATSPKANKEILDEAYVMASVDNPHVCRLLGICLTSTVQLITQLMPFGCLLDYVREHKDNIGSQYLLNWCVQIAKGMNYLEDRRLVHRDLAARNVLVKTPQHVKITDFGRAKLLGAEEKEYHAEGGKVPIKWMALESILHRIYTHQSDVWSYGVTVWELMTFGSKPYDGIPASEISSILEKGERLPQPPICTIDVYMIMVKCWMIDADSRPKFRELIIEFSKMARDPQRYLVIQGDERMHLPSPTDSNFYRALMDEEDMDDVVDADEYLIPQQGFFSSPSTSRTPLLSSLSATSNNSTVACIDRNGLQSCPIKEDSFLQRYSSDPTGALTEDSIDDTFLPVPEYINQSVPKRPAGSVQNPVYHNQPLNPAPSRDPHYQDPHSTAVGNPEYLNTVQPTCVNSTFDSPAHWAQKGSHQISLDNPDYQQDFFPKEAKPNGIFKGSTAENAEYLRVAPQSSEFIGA
T1 sequence (P00533 25-1210): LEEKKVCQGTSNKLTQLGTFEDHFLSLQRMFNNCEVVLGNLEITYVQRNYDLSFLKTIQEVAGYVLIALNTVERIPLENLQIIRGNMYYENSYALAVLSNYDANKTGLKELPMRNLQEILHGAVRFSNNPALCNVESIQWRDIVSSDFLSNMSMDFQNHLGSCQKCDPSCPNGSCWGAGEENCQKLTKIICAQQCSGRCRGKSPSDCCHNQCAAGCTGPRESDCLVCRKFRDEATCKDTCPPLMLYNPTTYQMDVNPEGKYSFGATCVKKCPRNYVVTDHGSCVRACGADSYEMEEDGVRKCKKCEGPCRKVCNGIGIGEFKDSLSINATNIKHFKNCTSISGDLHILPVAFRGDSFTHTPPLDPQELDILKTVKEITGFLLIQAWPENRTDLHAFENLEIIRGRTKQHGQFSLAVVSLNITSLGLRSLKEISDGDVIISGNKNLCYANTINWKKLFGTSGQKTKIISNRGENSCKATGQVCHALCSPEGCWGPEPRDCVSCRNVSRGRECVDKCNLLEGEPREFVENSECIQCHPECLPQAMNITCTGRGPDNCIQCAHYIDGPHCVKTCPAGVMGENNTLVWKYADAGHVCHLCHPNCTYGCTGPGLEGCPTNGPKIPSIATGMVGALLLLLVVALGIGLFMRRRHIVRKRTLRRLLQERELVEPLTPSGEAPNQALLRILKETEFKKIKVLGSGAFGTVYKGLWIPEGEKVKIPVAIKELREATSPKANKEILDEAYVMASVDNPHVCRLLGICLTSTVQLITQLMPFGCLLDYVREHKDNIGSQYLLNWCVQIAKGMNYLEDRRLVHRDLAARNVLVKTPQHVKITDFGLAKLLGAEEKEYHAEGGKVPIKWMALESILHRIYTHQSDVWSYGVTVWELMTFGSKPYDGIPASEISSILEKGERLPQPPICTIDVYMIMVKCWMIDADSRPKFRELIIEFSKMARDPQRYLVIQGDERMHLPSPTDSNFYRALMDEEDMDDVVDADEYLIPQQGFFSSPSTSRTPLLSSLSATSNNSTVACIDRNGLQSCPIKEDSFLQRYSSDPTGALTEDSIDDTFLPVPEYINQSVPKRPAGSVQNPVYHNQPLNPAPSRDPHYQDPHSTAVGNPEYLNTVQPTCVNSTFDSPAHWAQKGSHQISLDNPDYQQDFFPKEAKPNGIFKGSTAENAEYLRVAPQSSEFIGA

| IC50 [1] | IC50 [2] | Kd [3] | Kd [4] | Kd [5] | Kd [6] | Kd [7] | Kd [8] | Kd [9] | Kd [10] | Kd [11] | Kd [12] | Compound |
| --- | --- | --- | --- | --- | --- | --- | --- | --- | --- | --- | --- | --- |
| 100 to 1000 nM | < 100 nM | < 100 nM | < 100 nM | < 100 nM | < 100 nM | < 100 nM | < 100 nM | < 100 nM | < 100 nM | < 100 nM | < 100 nM | Oc1ccc(-c2cc3c(Oc4cccc(Br)c4)ncnc3[nH]2)cc1 [Compound E3] |
| 100 to 1000 nM | 100 to 1000 nM | < 100 nM | < 100 nM | < 100 nM | < 100 nM | < 100 nM | < 100 nM | < 100 nM | < 100 nM | 100 to 1000 nM | < 100 nM | Clc1ccc(Sc2ncnc3c2[nH]c2ccccc23)cc1Cl [Compound K5] |
| 100 to 1000 nM | < 100 nM | < 100 nM | < 100 nM | < 100 nM | < 100 nM | < 100 nM | < 100 nM | < 100 nM | < 100 nM | < 100 nM | < 100 nM | Oc1ccc(-c2cc3c(Sc4ccccc4)ncnc3[nH]2)cc1 [Compound L2] |
